We go through 25 compounds from PMC5019375, “Characterization of Potent SMAC Mimetics that Sensitize Cancer Cells to TNF Family-Induced Apoptosis” (PLoS ONE, 2016).

Targets include cIAP1-BIR2 (Homo sapiens, UniProt Q13490); cIAP2-BIR3 (Homo sapiens, UniProt Q13489); cIAP2-BIR2 (Homo sapiens, UniProt Q13489).
Assay in all cases: FP competition assay, displacement of SMAC-rhodamine
Another assay concerns the target cIAP1-BIR3 (Homo sapiens, UniProt Q13490). To be noted: for Ki: cIAP1 BIR3 Ki, 25 mM Hepes pH 7.5, 1 mM TCEP, 0.005% Tween 20, 20 nM SMAC-rhodamine, 40 mM β-glycerol phosphate, ~50 nM protein, Ki calculated from IC50; for binding affinity for cIAP1 and cIAP2 compared with XIAP: estimated by relative Ki values, cIAP1 and cIAP2 vs XIAP.

Several values for one entry are separate records, joined by “and”; a condition that tells them apart may be missing. Identical values can stand only once. No end group written: not given here.

As a reminder, the Ki is a dissociation constant, usually derived from enzyme kinetics or from competition with a known ligand.

cIAP2-BIR2, sequence (Q13489 129-246): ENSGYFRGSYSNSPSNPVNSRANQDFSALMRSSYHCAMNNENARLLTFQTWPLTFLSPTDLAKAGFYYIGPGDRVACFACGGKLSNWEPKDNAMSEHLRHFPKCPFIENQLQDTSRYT
cIAP2-BIR3, sequence (Q13489 243-333): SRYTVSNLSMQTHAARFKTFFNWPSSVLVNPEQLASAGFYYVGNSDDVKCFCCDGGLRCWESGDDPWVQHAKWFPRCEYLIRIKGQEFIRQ
cIAP1-BIR3, sequence (Q13490 257-356): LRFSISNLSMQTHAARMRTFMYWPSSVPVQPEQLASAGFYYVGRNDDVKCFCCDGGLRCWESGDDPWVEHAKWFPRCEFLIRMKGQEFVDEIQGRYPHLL
cIAP1-BIR2, sequence (Q13490 144-260): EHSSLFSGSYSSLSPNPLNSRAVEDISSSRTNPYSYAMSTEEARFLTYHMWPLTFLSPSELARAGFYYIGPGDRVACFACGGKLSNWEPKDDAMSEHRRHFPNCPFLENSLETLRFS
Description for cIAP1-BIR2: (§1) Solutions for assessing SMAC-rhodamine binding to various BIR domains were empirically optimized. […] For cIAP1-BIR3, the assay buffer was 25 mM Hepes [pH 7.5] containing 40 mM β-glycerol phosphate, 1 mM TCEP, and 0.005% Tween 20, typically with 20 nM SMAC-rhodamine. For cIAP1-BIR2, cIAP2-BIR2 and cIAP2-BIR3, assays were performed in 25 mM Hepes [pH 7.5] containing 1 mM TCEP and 0.005% Tween 20, typically with 20 nM SMAC-rhodamine.
(§2) For cIAP1-BIR2, assays were conducted using 25 mM Hepes [pH 7.5] containing 1 mM TCEP, 0.005% Tween 20, ~1 μM cIAP1-BIR2, and 20 nM SMAC-rhodamine. For cIAP1-BIR3, assays were performed using the same buffered solution, except 40 mM β-glycerol phosphate was added and the cIAP1-BIR3 concentration was reduced to 50 nM. For cIAP2-BIR2, assays included a buffer containing 25 mM Hepes [pH 7.5] containing 1 mM TCEP, 0.005% Tween 20, 1 μM cIAP2-BIR2, and 20 nM SMAC-rhodamine. […] IC50 values were determined with a nonlinear fit using Prism software. Ki values were determined from the IC50 values using an online program developed by Nikolovska-Coleska et al. [26].
Description for cIAP1-BIR3: as §1, §2
Description for cIAP2-BIR2: as §1, §2
Description for cIAP2-BIR3: as §1, §2

Regarding `CN[C@@H](C)C(=O)N[C@@H](CC(=O)O)C(=O)N1CCC[C@H]1C(=O)N[C@@H]1CCCc2ccccc21` [compound 7], the Ki was 9400 nM at cIAP1-BIR3, > 57200 nM at cIAP1-BIR2, 12600 nM at cIAP2-BIR3 and > 56700 nM on cIAP2-BIR2.
The corresponding values for `CN[C@@H](C)C(=O)N[C@H](C(=O)N[C@@H](CCCN=C(N)N)C(=O)NNc1ccccc1)C(C)C` [compound 28] are 1970 nM, 4390 nM, 1420 nM and 15400 nM.
For `CN[C@@H](C)C(=O)N[C@H](C(=O)N[C@@H](CCCCNC(=O)OCc1ccccc1)C(=O)N[C@@H]1CCCc2ccccc21)C(C)C` [compound 12], in that order: 200 nM, 3310 nM, 500 nM and 5460 nM.
For `CN[C@@H](C)C(=O)N[C@@H](CCC(N)=O)C(=O)N1CCC[C@H]1C(=O)N[C@@H]1CCCc2ccccc21` [compound 8], the Ki was 80 nM on cIAP1-BIR3, 1260 nM on cIAP1-BIR2, 150 nM on cIAP2-BIR3 and 4070 nM at cIAP2-BIR2.
For `CC(C)[C@H](NC(=O)[C@H](C)N)C(=O)N[C@@H](CCCNC(=O)OCc1ccccc1)C(=O)Nc1cccc2ccccc12` [compound 21], in that order: 850 nM, 2770 nM, 990 nM and 4790 nM.
The corresponding values for `CN[C@@H](C)C(=O)N[C@H](C(=O)N[C@@H](CCCNC(N)=N[N+](=O)[O-])C(=O)N[C@@H]1CCCc2ccccc21)C(C)C` [compound 9] are 50 nM, 810 nM, 70 nM and 2620 nM.
The corresponding values for `CN[C@@H](C)C(=O)N[C@H](C(=O)N[C@@H](CCCNC(=O)OCc1ccccc1)C(=O)N[C@@H]1CCCc2ccccc21)C(C)C` [compound 10] are 280 nM, 1410 nM, 220 nM and 2070 nM.
Regarding `CN[C@@H](C)C(=O)N[C@@H](CCC(=O)O)C(=O)N[C@@H](C)C(=O)NNc1ccccc1` [compound 29], the Ki at cIAP1-BIR3 was 10900 nM; at cIAP1-BIR2 it was 7670 nM; at cIAP2-BIR3 it was 23000 nM; at cIAP2-BIR2 it was 25100 nM.
Regarding `CC(C)[C@H](NC(=O)[C@@H](N)CO)C(=O)N[C@@H](C)C(=O)Nc1cccc2ccccc12` [compound 19], the Ki at cIAP1-BIR3 is 4370 nM; on cIAP1-BIR2, 8330 nM; on cIAP2-BIR3, 17200 nM; on cIAP2-BIR2, 22400 nM.
The corresponding values for `CN[C@@H](C)C(=O)N[C@@H](CC(C)C)C(=O)N1CCC[C@H]1C(=O)N[C@@H]1CCCc2ccccc21` [compound 5] are 60 nM, 1330 nM, 120 nM and 4350 nM.
The corresponding values for “AVPIAQK-NH2 [SMAC-7-mer, AVPIAQK, reference compound]” are 450 nM, 15400 nM, 420 nM and 26400 nM.
The corresponding values for `CC(C)[C@H](NC(=O)[C@H](C)N)C(=O)N1CCC[C@H]1C(=O)NNc1ccccc1` [compound 36] are 340 nM, 6110 nM, 570 nM and 12900 nM.
For the compound `CC[C@H](N)C(=O)N[C@H](C(=O)N[C@@H](C)C(=O)Nc1cccc2ccccc12)C(C)C` [compound 20], the inhibition constant Ki on cIAP1-BIR3 is 4770 nM; on cIAP1-BIR2, 24900 nM; at cIAP2-BIR3 it was 5290 nM; on cIAP2-BIR2, 43800 nM.
For the compound `CN[C@@H](C)C(=O)N[C@H](C(=O)N[C@@H](CCCNC(=O)OCc1ccccc1)C(=O)NNc1ccccc1)C(C)C` [compound 31], the Ki on cIAP2-BIR3 is 1290 nM; on cIAP2-BIR2, 2930 nM.
`CN[C@@H](C)C(=O)N[C@H](C(=O)N[C@@H](CCC(N)=O)C(=O)N[C@@H]1CCCc2ccccc21)C(C)C` [compound 11]: the Ki at cIAP1-BIR3 was 720 nM; at cIAP1-BIR2 it was 3250 nM; at cIAP2-BIR3, 550 nM; on cIAP2-BIR2, 5500 nM.
The corresponding values for `CN[C@@H](C)C(=O)N[C@@H](CC(=O)OC)C(=O)N1CCC[C@H]1C(=O)N[C@@H]1CCCc2ccccc21` [compound 6] are 80 nM, 2160 nM, 190 nM and 6380 nM.
With `CN[C@@H](C)C(=O)N[C@H](C(=O)N[C@@H](CCCCN)C(=O)NNc1ccccc1)C(C)C` [compound 35], the Ki on cIAP1-BIR3 is 2830 nM; on cIAP1-BIR2, 2180 nM; at cIAP2-BIR3, 1350 nM; at cIAP2-BIR2, 5090 nM.
For `CC(C)[C@H](NC(=O)[C@H](C)N)C(=O)N[C@@H](C)C(=O)Nc1cccc2ccccc12` [compound 17], in that order: 1230 nM, 3770 nM, 980 nM and 5980 nM.
`CC[C@H](C)[C@H](NC(=O)[C@H](C)NC)C(=O)N1CCC[C@H]1C(=O)N[C@@H]1CCCc2ccccc21` [compound 2]: the inhibition constant Ki at cIAP1-BIR3 was 40 nM; at cIAP1-BIR2, 1110 nM; at cIAP2-BIR3, 90 nM; on cIAP2-BIR2 it was 2080 nM. At cIAP1-BIR3, the “binding affinity for cIAP1 and cIAP2 compared with XIAP” value was “higher affinity binding to cIAP1 and cIAP2 than XIAP”.
In the case of `CN[C@@H](C)C(=O)N[C@H](C(=O)N[C@@H](CCCN)C(=O)NNc1ccccc1)C(C)C` [compound 32], the Ki was 4010 nM at cIAP1-BIR3, 3820 nM on cIAP1-BIR2, 2170 nM at cIAP2-BIR3 and 10900 nM on cIAP2-BIR2.
Take `CC[C@H](NC(=O)[C@H](C)NC)C(=O)N1CCC[C@H]1C(=O)N[C@@H]1CCCc2ccccc21` [compound 3]: the Ki on cIAP1-BIR3 is 60 nM; at cIAP1-BIR2 it was 2340 nM; on cIAP2-BIR3 it was 60 nM; at cIAP2-BIR2, 5270 nM. Also, at cIAP1-BIR3, the “binding affinity for cIAP1 and cIAP2 compared with XIAP” value was “higher affinity binding to cIAP1 and cIAP2 than XIAP”.
Take `CN[C@@H](C)C(=O)N[C@H](C(=O)N1CCC[C@H]1C(=O)NNc1ccccc1)C(C)C` [compound 22]: the Ki was 260 nM on cIAP1-BIR3, 3620 nM at cIAP1-BIR2, 560 nM at cIAP2-BIR3 and 5430 nM at cIAP2-BIR2.
Take `CN[C@@H](C)C(=O)N[C@H](C(=O)N1CCC[C@@H]1C(=O)Nc1cccc2ccccc12)C(C)C` [compound 16]: the inhibitory constant (Ki) at cIAP1-BIR3 is 180 nM and 200 nM; on cIAP1-BIR2, 1730 nM; on cIAP2-BIR3 it was 200 nM; at cIAP2-BIR2, 3350 nM.
On to `CN[C@@H](C)C(=O)N[C@H](C(=O)N[C@@H](CCCN)C(=O)N[C@@H]1CCCc2ccccc21)C(C)C` [compound 13], for which the Ki on cIAP1-BIR3 was 90 nM; at cIAP1-BIR2, 1470 nM; on cIAP2-BIR3 it was 70 nM; at cIAP2-BIR2, 3750 nM.
For `CN[C@@H](C)C(=O)N[C@H](C(=O)N[C@@H](CO)C(=O)N[C@@H]1CCCc2ccccc21)C(C)C` [compound 14], in that order: 230 nM, 3090 nM, 300 nM and 6810 nM.
